Reference: US10414769B2, “5,8-dimethyl-9-phenyl-5,8-dihydro-6H-pyrazolo[3,4-h]quinazolin-2-yl)-(1H-pyrazol-3-yl)-amines as IGF-1R/IR inhibitors” (Boehringer Ingelheim International GmbH, priority 2015, dated 2019)

Tests used:
[1] = biological target: T1, AKT2 (PKB beta) (Homo sapiens, UniProt P31751); assay: Z'-LYTE kinase selectivity assay AKT2; format: biochemical
T1 construct: purchased Life Technologies PV3975
From the text: (§1) In order to compare the kinase selectivity of compounds (I) according to the invention with known prior art compounds the commercially provided SelectScreen® Kinase Profiling Service (Z′-LYTE®) was used (Life Technologies GmbH, Darmstadt, Germany) to investigate the ability of the compounds to inhibit a number of different, representatively selected human kinases. Further details regarding this service are available on the Life Technologies website at
(§2) The Z′-LYTE® biochemical assay employs a fluorescence-based, coupled-enzyme format and is based on the differential sensitivity of phosphorylated and non-phosphorylated peptides to proteolytic cleavage. The peptide substrate is labeled with two fluorophores—one at each end—that make up a FRET pair.
(§3) In the primary reaction, the kinase transfers the gamma-phosphate of ATP to a single tyrosine, serine or threonine residue in a synthetic FRET-peptide. In the secondary reaction, a site-specific protease recognizes and cleaves non-phosphorylated FRET-peptides. Phosphorylation of FRET-peptides suppresses cleavage by the Development Reagent. Cleavage disrupts FRET between the donor (i.e., coumarin) and acceptor (i.e., fluorescein) fluorophores on the FRET-peptide, whereas uncleaved, phosphorylated FRET-peptides maintain FRET. A ratiometric method, which calculates the ratio (the Emission Ratio) of donor emission to acceptor emission after excitation of the donor fluorophore at 400 nm, is used to quantitate reaction progress, as shown in the equation below.
(§4) The Test Compounds are screened at 1 μM.
The 2×AKT2 (PKB beta) (# PV3975)/Ser/Thr 06 (Z′-LYTE® Kinase Assay Kit—Ser/Thr 6 Peptide, # PV 3179) mixture is prepared in 50 mM HEPES pH 7.5, 0.01% BRIJ-35, 10 mM MgCl2, 1 mM EGTA. The final 10 μL Kinase Reaction consists of 0.78-40 ng AKT2 (PKB beta) and 2 μM Ser/Thr 06 in 50 mM HEPES pH 7.5, 0.01% BRIJ-35, 10 mM MgCl2, 1 mM EGTA. After the 1 hour Kinase Reaction incubation, 5 μL of a 1:4096 dilution of Development Reagent A is added.

[2] = biological target: T2, FGFR1 (Homo sapiens, UniProt P11362); assay: Z'-LYTE kinase selectivity assay FGFR1; format: biochemical
T2 construct: purchased Life Technologies PV 3146
T2 sequence (P11362 22-822): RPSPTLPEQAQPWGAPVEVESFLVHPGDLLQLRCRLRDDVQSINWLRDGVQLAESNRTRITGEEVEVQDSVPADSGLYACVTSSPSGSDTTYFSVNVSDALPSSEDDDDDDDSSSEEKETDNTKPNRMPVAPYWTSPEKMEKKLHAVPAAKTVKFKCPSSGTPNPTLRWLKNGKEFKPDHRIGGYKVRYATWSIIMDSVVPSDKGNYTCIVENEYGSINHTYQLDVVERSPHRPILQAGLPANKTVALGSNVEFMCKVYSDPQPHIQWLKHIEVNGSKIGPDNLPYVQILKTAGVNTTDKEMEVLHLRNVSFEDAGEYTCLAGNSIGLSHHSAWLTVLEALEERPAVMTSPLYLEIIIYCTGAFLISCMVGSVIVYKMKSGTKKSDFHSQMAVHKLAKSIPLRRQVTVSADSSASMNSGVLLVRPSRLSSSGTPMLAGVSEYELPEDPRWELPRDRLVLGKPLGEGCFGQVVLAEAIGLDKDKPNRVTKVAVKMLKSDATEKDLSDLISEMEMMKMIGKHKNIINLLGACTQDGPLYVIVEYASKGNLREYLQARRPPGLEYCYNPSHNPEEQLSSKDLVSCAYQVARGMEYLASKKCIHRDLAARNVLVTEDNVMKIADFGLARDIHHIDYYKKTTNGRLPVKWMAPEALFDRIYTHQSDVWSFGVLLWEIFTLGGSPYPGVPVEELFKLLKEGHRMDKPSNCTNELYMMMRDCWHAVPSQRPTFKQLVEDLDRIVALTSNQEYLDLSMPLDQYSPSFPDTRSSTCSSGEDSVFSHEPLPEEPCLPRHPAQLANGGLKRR
From the text: as §1, §2, §3, §4
The 2×FGFR1 (# PV 3146)/Tyr 04 (Z′-LYTE® Kinase Assay Kit—Tyrosine 4 Peptide, # PV 3193) mixture is prepared in 50 mM HEPES pH 7.5, 0.01% BRIJ-35, 10 mM MgCl2, 4 mM MnCl2, 1 mM EGTA, 2 mM DTT. The final 10 μL Kinase Reaction consists of 0.44-2.45 ng FGFR1 and 2 μM Tyr 04 in 50 mM HEPES pH 7.5, 0.01% BRIJ-35, 10 mM MgCl2, 2 mM MnCl2, 1 mM EGTA, 1 mM DTT. After the 1 hour Kinase Reaction incubation, 5 μL of a 1:64 dilution of Development Reagent B is added.

[3] = system: HCT 116 (colorectal carcinoma) cells; assay: Cell proliferation assay HCT 116 (Alamar Blue); format: cell-based; conditions: Homo sapiens; anti-proliferative effect, HCT 116 cells (negative control line), 72 h
Experimental: Cell Proliferation Assays
Compounds were tested for their anti-proliferative effects in the TC-71 (EWING'S sarcoma) and HCT 116 (colorectal carcinoma) cancer cell lines in vitro. Published scientific data has described that interference with the IGF-1R signaling pathway reduces the proliferation of TC-71 cells (Manara et al, 2007). Therefore TC-71 cells served as a positive control cell line for monitoring the activity of compounds against IGF-1R-mediated cell proliferation. […] Therefore the HCT 116 cell line served as a negative control.
2000 TC-71 cells or 1000 HCT 116 cells were seeded per well in 180 μL IMDM+10% foetal calf serum (FCS)+penicillin/streptomycin into 96-well microtitre plates. The plates were placed in a cell culture incubator (37° C. in a humidified atmosphere of […]/5% CO2) overnight. The following day, serial dilutions of compounds, prepared in duplicates, were transferred onto the cell layers (controls without compound). The cells were cultivated for a further 72 h in the cell culture incubator. 20 μL of Alamar Blue™ (Serotec Ltd, Dusseldorf, Germany) was added to each well and the plates incubated for 7 h in the cell culture incubator. Fluorescence (extinction wavelength of 544 nm and emission at 590 nm) was then measured and the normalized data fitted by iterative calculation with a sigmoidal curve analysis program (Graph Pad Prism) with a variable Hill slope to determine the EC50 values.

[4] = biological target: T3, MAP3K8 (COT) (Homo sapiens, UniProt P41279); assay: Z'-LYTE kinase selectivity assay MAP3K8; format: biochemical
T3 construct: purchased Life Technologies PV 4313
T3 sequence (P41279 whole entry): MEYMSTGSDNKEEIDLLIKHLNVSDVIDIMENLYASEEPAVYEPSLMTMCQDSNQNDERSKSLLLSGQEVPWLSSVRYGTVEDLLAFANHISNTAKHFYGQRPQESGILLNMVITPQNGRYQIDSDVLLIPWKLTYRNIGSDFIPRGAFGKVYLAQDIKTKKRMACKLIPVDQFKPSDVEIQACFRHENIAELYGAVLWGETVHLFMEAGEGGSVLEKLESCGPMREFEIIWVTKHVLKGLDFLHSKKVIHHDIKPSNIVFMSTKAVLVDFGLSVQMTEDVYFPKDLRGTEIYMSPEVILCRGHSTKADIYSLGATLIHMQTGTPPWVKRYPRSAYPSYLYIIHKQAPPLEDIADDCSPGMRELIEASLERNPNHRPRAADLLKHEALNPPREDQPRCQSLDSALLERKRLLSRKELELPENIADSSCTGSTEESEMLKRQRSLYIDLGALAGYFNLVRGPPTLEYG
From the text: as §1, §2, §3, §4
(§5) After the 1 hour Kinase Reaction incubation, 5 μL of a 1:1024 dilution of Development Reagent A is added.

[5] = biological target: T4, ROCK2 (Homo sapiens, UniProt O75116); assay: Z'-LYTE kinase selectivity assay ROCK2; format: biochemical
T4 construct: purchased Life Technologies PV 3759
T4 sequence (O75116 whole entry): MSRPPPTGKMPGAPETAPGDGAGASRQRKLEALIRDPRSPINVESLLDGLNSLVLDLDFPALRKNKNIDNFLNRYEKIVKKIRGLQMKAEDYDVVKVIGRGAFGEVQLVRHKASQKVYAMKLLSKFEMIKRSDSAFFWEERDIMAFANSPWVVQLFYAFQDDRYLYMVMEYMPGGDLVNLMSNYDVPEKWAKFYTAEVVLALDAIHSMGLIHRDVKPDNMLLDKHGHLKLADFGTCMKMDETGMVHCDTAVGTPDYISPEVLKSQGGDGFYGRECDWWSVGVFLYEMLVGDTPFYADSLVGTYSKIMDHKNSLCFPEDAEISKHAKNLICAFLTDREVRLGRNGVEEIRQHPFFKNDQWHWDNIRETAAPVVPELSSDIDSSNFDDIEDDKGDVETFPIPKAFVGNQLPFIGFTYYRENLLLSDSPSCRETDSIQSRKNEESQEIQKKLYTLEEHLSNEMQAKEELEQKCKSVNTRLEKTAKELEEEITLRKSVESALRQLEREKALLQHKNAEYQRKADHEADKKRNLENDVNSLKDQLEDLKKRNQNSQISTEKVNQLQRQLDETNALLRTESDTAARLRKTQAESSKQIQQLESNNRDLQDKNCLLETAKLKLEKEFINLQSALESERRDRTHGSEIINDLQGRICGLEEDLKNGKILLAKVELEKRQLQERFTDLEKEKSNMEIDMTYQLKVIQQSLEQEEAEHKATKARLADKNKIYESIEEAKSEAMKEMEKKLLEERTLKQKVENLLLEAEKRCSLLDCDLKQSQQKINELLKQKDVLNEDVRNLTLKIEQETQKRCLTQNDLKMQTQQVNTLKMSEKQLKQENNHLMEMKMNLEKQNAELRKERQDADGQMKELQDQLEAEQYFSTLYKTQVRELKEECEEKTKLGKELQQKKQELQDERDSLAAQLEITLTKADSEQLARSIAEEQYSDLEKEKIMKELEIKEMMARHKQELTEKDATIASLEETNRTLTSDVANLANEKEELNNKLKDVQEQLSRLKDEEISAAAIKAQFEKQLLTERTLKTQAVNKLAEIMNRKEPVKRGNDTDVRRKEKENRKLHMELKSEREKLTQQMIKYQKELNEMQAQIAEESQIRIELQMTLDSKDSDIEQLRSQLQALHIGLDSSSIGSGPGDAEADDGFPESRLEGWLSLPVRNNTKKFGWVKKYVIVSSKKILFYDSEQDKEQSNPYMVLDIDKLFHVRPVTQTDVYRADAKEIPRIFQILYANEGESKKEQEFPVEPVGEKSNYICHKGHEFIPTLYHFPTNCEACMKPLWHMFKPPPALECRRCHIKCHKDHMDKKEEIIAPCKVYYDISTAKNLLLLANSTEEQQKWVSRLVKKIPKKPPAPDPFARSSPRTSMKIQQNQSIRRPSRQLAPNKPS
From the text: as §1, §2, §3, §4
The 2×ROCK2 (# PV 3759)/Ser/Thr 13 (Z′-LYTE® Kinase Assay Kit—Ser/Thr 13 Peptide, # PV 3793) mixture is prepared in 50 mM HEPES pH 7.5, 0.01% BRIJ-35, 10 mM MgCl2. 1 mM EGTA. The final 10 μL Kinase Reaction consists of 0.62-4.13 ng ROCK2 and 2 μM Ser/Thr 13 in 50 mM HEPES pH 7.5, 0.01% BRIJ-35, 10 mM MgCl2, 1 mM EGTA. After the 1 hour Kinase Reaction incubation, 5 μL of a 1:1024 dilution of Development Reagent A is added.

[6] = biological target: T5, MAP2K1 (MEK1) (Homo sapiens, UniProt Q02750); assay: Z'-LYTE kinase selectivity assay MAP2K1; format: biochemical
T5 construct: purchased Life Technologies PV 3303
T5 sequence (Q02750 whole entry): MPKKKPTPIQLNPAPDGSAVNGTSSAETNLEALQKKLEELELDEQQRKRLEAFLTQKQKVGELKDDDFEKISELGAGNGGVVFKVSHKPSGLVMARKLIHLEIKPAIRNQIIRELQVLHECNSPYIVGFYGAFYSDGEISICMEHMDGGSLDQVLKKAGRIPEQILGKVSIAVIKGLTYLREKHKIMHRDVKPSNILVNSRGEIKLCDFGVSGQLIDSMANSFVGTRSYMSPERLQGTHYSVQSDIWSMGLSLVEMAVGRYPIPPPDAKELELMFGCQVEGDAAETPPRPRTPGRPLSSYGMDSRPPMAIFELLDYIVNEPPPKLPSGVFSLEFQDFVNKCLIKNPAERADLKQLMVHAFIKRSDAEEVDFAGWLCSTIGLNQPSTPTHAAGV
From the text: as §1, §2, §3, §4, §5

[7] = biological target: T6, CAMK2D (CaMKII delta) (Homo sapiens, UniProt Q13557); assay: Z'-LYTE kinase selectivity assay CAMK2D; format: biochemical
T6 construct: purchased Life Technologies PV 3373
From the text: as §1, §2, §3, §4
The 2×CAMK2D (CaMKII delta) (# PV 3373)/Ser/Thr 04 (Z′-LYTE® Kinase Assay Kit—Ser/Thr 4 Peptide, # PV 3177) mixture is prepared in 50 mM HEPES pH 7.5, 0.01% BRIJ-35, 10 mM MgCl2, 1 mM EGTA, 4 mM CaCl2), 800 U/mL Calmodulin, 0.02% NaN3. The final 10 μL Kinase Reaction consists of 0.08-0.74 ng CAMK2D (CaMKII delta) and 2 μM Ser/Thr 04 in 50 mM HEPES pH 7.5, 0.01% BRIJ-35, 10 mM MgCl2, 1 mM EGTA, 2 mM CaCl2), 400 U/mL Calmodulin, 0.01% NaN3. After the 1 hour Kinase Reaction incubation, 5 μL of a 1:1024 dilution of Development Reagent A is added.

T1 sequence (P31751 whole entry): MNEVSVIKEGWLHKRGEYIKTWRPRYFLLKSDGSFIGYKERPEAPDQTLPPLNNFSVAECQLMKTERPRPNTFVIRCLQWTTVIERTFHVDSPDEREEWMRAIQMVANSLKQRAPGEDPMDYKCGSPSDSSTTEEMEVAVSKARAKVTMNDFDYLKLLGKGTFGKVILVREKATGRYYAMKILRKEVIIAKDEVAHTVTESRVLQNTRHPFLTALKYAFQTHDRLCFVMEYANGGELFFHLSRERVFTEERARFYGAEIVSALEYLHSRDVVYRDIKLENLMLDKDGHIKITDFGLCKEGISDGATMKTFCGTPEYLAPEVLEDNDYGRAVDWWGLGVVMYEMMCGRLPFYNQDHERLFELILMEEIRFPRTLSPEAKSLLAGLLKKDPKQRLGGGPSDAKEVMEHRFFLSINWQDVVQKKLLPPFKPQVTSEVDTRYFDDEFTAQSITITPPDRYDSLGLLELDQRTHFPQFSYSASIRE

| SMILES | inhibition at 1 µM [1] [%] | inhibition at 1 µM [2] [%] | EC50 [3] [µM] | inhibition at 1 µM [4] [%] | inhibition at 1 µM [5] [%] | inhibition at 1 µM [6] [%] | inhibition at 1 µM [7] [%] |
| --- | --- | --- | --- | --- | --- | --- | --- |
| C[C@@H]1Cc2nn(C)c(-c3ccccc3)c2-c2nc(Nc3ccn(CCN4CCN(C)CC4)n3)ncc21 [Compound I-1] | 3 | 30 | > 2.5 | 27 | 1 | 34 | 53 |
| C[C@@H]1Cc2nn(C)c(-c3ccccc3)c2-c2nc(Nc3ccn(CCN4CCOCC4)n3)ncc21 [Compound I-2] | 1 | 40 | > 2.5 | 57 | 6 | 58 | 47 |
| C[C@@H]1Cc2nn(C)c(-c3ccccc3)c2-c2nc(Nc3ccn(CCN4CCN(CC(C)(C)O)CC4)n3)ncc21 [Compound I-3] | 7 | 34 | 2 | 45 | 7 | 50 | 58 |
| CC(O)CN1CCN(CCn2ccc(Nc3ncc4c(n3)-c3c(nn(C)c3-c3ccccc3)C[C@H]4C)n2)CC1 (stereo partly shown) [Compound I-7] | 7 | 34 | 1.83 | 42 | 9 | 40 | 64 |
| C[C@@H]1Cc2nn(C)c(-c3ccccc3)c2-c2nc(Nc3ccn(CCN4CCN(CC(=O)OC5CCOCC5)CC4)n3)ncc21 [Compound I-8] | 4 | 29 | > 2.5 | 38 | 7 | 48 | 40 |
| C[C@@H]1Cc2nn(C)c(-c3ccccc3)c2-c2nc(Nc3ccn(CCN4CCN(CC5CCCO5)CC4)n3)ncc21 (stereo partly shown) [Compound I-9] | 2 | 32 | > 2.5 | 37 | 3 | 36 | 69 |
| COCCN1CCN(CCn2ccc(Nc3ncc4c(n3)-c3c(nn(C)c3-c3ccccc3)C[C@H]4C)n2)CC1 [Compound I-11] | 3 | 28 | > 2.5 | 22 | 9 | 39 | 38 |
